The experiment concerns the target RORγ (Homo sapiens, UniProt P51449). In words: RORγ Gal4 Reporter Gene Assay. The following applies: for IC50: 293T cells. It counts as cell-based. On the procedure: Determination of a ligand mediated Gal4 promoter driven transactivation to quantify ligand binding to RORγ was performed as follows: DNA encoding three different RORγ protein fragments was cloned into vector pCMV-BD (Stratagene). Expression was under control of a CMV promoter and as fusion to the DNA-binding domain of the yeast protein GAL4. Other vectors used were pFR-Luc (Stratagene) as regulated reporter plasmid. pFR-Luc contains a synthetic promoter with five tandem repeats of the yeast GAL4 binding sites that control expression of the Photinus pyralis (American firefly) luciferase gene. In order to improve experimental accuracy the plasmid pRL-CMV was cotransfected. pRL-CMV contains the constitutive CMV promoter, controlling the expression of the Renilla reniformis luciferase.
The medium is supplemented with 10% fetal bovine serum, 0.1 mM nonessential amino acids, 1 mM sodium pyruvate, 1% Glutamax and 100 units Penicilin/[…] per mL at 37° C. in 5% CO2.
For the assay, […] were plated per well in 96 well plates in 100 μL per well, incubated over night at 37° C. in 5% CO2. […] About 4 h after addition of the transfection solution, fresh Minimal Essential Medium (MEM, same composition as used for plating cells, but without serum) was added. Then compound stocks, prediluted in MEM (same composition as used for plating cells) were added (final vehicle concentration not exceeding 0.1%).
All experiments were done at least in triplicates.

Setting [1] is: firefly (FF) luciferase, read-out: pIC50 (FF) (converted).
Where [2] appears, read: renilla normalised (RENnorm) luciferase, read-out: pIC50 (REN) (converted).

Experimental findings from patent US10301272B2, “Carboxamide or sulfonamide substituted thiazoles and related derivatives as modulators for the orphan nuclear receptor ROR[γ]” (Phenex Pharmaceuticals AG, priority 2012, dated 2019) are described below.

Read-outs that look alike come from different tables or passages of the source.

Sequence of RORγ (P51449 whole entry, looked up, the tested form may be a part): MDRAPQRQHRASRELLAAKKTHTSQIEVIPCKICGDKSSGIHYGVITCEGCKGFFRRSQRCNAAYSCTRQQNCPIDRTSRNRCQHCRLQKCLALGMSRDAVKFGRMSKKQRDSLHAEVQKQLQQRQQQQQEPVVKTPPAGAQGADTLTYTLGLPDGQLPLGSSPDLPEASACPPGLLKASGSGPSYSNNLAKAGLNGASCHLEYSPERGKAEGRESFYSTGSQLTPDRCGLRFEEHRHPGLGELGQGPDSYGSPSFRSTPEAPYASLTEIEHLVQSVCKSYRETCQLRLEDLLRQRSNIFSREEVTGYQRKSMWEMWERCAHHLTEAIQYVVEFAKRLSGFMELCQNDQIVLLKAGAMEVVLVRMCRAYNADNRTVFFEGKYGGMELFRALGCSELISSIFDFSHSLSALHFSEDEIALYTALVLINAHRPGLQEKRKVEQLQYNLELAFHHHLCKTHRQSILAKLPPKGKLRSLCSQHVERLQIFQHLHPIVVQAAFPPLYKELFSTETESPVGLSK

For `CC(C)(C#N)CNC(=O)c1nc(CC2CCCCC2)c(-c2ccc(S(=O)(=O)NC(C)(C)C)c3ccccc23)s1` [6/58], the “pIC50 (FF)” value is recorded as “nt/8.7/8.7” and the “pIC50 (REN)” value was “nt/8.7/8.7”.

Regarding `CC(C)(C)NS(=O)(=O)c1ccc(-c2sc(C(=O)NC3CCS(=O)(=O)CC3)nc2CC2CCC2)c(Cl)c1Cl` [21/14], the “pIC50 (FF)” value is recorded as “nt/8.3/8.4” and the “pIC50 (REN)” value is recorded as “nt/8.3/8.4”.

Take `CC(C)(C)NS(=O)(=O)c1ccc(-c2nc(C(=O)N[C@H]3C[C@H](C(=O)O)C3)sc2CC2CCCCC2)c2ccccc12` [Example 25/1]: the “pIC50 (FF)” value is given as “nt/8.9/8.8” and the “pIC50 (REN)” value is on record as “nt/8.9/8.8”.

Take `CC1CCN(C(=O)c2nc(C(=O)NCC(C)(C)O)sc2-c2ccc(S(=O)(=O)NC3(C)CC3)c3ccccc23)CC1` [304/27]: the “pIC50 (FF)” value was “nt/7.6/7.5” and the “pIC50 (REN)” value is “nt/7.6/7.5”.

Turning to `CC1CCN(C(=O)c2nc(C(=O)NCC(C)(C)O)sc2-c2ccc(S(=O)(=O)N[C@@H](C)C(F)(F)F)c3ccccc23)CC1` [304/12], the “pIC50 (FF)” value was “nt/7.7/7.7” and the “pIC50 (REN)” value is “nt/7.7/7.7”.

As to `CC(C)(O)CNC(=O)c1nc(CC2CCCCC2)c(-c2ccc(S(=O)(=O)NC(C)(C)C)cc2OC(F)(F)F)s1` [21/8], the “pIC50 (FF)” value is reported as “nt/7.7/7.8” and the “pIC50 (REN)” value is “nt/7.7/7.8”.

As to `CC1CCN(C(=O)c2nc(C(=O)NCC(C)(C)O)sc2-c2ccc(S(=O)(=O)N(CC(F)(F)F)C(C)(C)C)c3ccccc23)CC1` [304/23], the “pIC50 (FF)” value is recorded as “nt/7.5/7.7” and the “pIC50 (REN)” value is on record as “nt/7.5/7.7”.

As for `C[C@H](NS(=O)(=O)c1ccc(-c2sc(C(=O)NCC(C)(C)O)nc2CC2CCC2)c(C(F)(F)F)c1)C(F)(F)F` [21/20], the “pIC50 (FF)” value was “nt/7.7/7.7” and the “pIC50 (REN)” value was “nt/7.7/7.7”.

In the case of `CC(C)(C)NS(=O)(=O)c1ccc(-c2sc(C(=O)NC3CCS(=O)(=O)CC3)nc2-c2cccc(C(N)=O)c2)c2ccccc12` [300/16], the “pIC50 (FF)” value is “nt/6.0/6.1” and the “pIC50 (REN)” value is “nt/6.0/6.1”.

For `CC(C)(C)NS(=O)(=O)c1ccc(-c2sc(C(=O)N[C@H]3C[C@H](C(=O)O)C3)nc2C2CCCCC2)c2ccccc12` [300/17], the “pIC50 (FF)” value was “nt/8.0/8.0” and the “pIC50 (REN)” value is “nt/8.0/8.0”.

On to `CC(C)(O)CNC(=O)c1nc(CC2CCC2)c(-c2ccc(S(=O)(=O)NC(C)(C)C)cc2OC(F)(F)F)s1` [21/24], for which the “pIC50 (FF)” value is listed as “nt/7.5/7.6” and the “pIC50 (REN)” value is recorded as “nt/7.5/7.6”.

Turning to `CC(C)(C)NS(=O)(=O)c1ccc(-c2sc(C(=O)NC3CCS(=O)(=O)CC3)nc2C2CCC2)c2ccccc12` [300/10], the “pIC50 (FF)” value is reported as “nt/7.2/7.3” and the “pIC50 (REN)” value is on record as “nt/7.2/7.3”.

Take `CCC(C)(C)NS(=O)(=O)c1ccc(-c2sc(C(=O)NCC(C)(C)O)nc2C(=O)N2CCC(C)CC2)c(Cl)c1C` [Example 301/1]: the “pIC50 (FF)” value was “nt/8.5/8.5” and the “pIC50 (REN)” value is given as “nt/8.5/8.5”.

`CC(C)(C)NS(=O)(=O)c1ccc(-c2sc(C(=O)N[C@H]3C[C@H](C(=O)O)C3)cc2CC2CCCCC2)c2ccccc12` [Example 307, trans-3-(5-(4-(N-(tert-Butyl)sulfamoyl)naphthalen-1-yl)-4-(cyclohexylmethyl)thiophene-2-carboxamido)cyclobutanecarboxylic acid]: the “pIC50 (FF)” value is given as “nt/8.2/8.3” and the “pIC50 (REN)” value is listed as “nt/8.2/8.3”.

In the case of `CCC(C)(C)NS(=O)(=O)c1ccc(-c2sc(C(=O)N[C@H]3C[C@H](C(=O)O)C3)nc2C(=O)N2CCC(C)CC2)c(Cl)c1C` [Example 302, trans-3-(5-(2-Chloro-3-methyl-4-(N-(tert-pentyl)sulfamoyl)phenyl)-4-(4-methylpiperidine-1-carbonyl)thiazole-2-carboxamido)cyclobutanecarboxylic acid], the “pIC50 (FF)” value is on record as “nt/7.3/7.5” and the “pIC50 (REN)” value is reported as “nt/7.3/7.5”.

For the molecule `CN(C(=O)c1nc(CC2CCCCC2)c(-c2cc(C(C)(C)C)cc(C3(C)CC3)c2)s1)C1CCOCC1` [6/52], the “pIC50 (FF)” value is recorded as “nt/6.9/6.9” and the “pIC50 (REN)” value is listed as “nt/6.9/6.9”.

As for `CC1(NC(=O)c2cc(-c3sc(C(=O)NC4CCS(=O)(=O)CC4)nc3CC3CCCCC3)cc(C3(C)CC3)c2)COC1` [10/4], the “pIC50 (FF)” value is recorded as “nt/7.9/7.9” and the “pIC50 (REN)” value is listed as “nt/7.9/7.9”.

For the molecule `CC(C)(O)CNC(=O)c1nc(CC2CCC(F)(F)CC2)c(-c2ccc(S(=O)(=O)NC(C)(C)C)c3ccccc23)s1` [21/11], the “pIC50 (FF)” value is “nt/8.0/8.2” and the “pIC50 (REN)” value is reported as “nt/8.0/8.2”.

For `CC1CCN(C(=O)c2nc(C(=O)NCC(C)(C)O)sc2-c2ccc(S(=O)(=O)N3CCCCC3(C)C)c3ccccc23)CC1` [304/25], the “pIC50 (FF)” value is on record as “nt/8.0/7.6” and the “pIC50 (REN)” value was “nt/8.0/7.6”.

On to `CC1CCN(C(=O)c2nc(C(=O)N3CC4(CCS(=O)(=O)CC4)C3)sc2-c2ccc(S(=O)(=O)NC(C)(C)C)c3ccccc23)CC1` [304/16], for which the “pIC50 (FF)” value is reported as “nt/6.6/6.6” and the “pIC50 (REN)” value is given as “nt/6.6/6.6”.

As to `CC1CCN(C(=O)c2nc(C(=O)NCC(C)(C)O)sc2-c2ccc(S(=O)(=O)NC3(C)CCC3)c3ccccc23)CC1` [304/26], the “pIC50 (FF)” value is reported as “nt/8.0/7.9” and the “pIC50 (REN)” value is reported as “nt/8.0/7.9”.

Turning to `CC(C)(O)CNC(=O)c1nc(C(F)F)c(-c2ccc(S(=O)(=O)NC(C)(C)C)c3ccccc23)s1` [Example 305, 5-(4-(N-(tert-butyl)sulfamoyl)naphthalen-1-yl)-4-(difluoromethyl)-N-(2-hydroxy-2-methylpropyl)thiazole-2-carboxamide], the “pIC50 (FF)” value is given as “nt/6.6/7.2” and the “pIC50 (REN)” value is “nt/6.6/7.2”.

On to `CC1CCCN(C(=O)c2nc(C(=O)NCC(C)(C)O)sc2-c2ccc(S(=O)(=O)NC(C)(C)C)c3ccccc23)C1C` (stereo not drawn) [304/9], for which the “pIC50 (FF)” value is recorded as “nt/7.3/7.4” and the “pIC50 (REN)” value is listed as “nt/7.3/7.4”.

Take `CC1CCN(C(=O)c2nc(C(=O)NCC(C)(C)O)sc2-c2ccc(S(=O)(=O)NCC(F)(F)F)c3ccccc23)CC1` [304/21]: the “pIC50 (FF)” value is given as “nt/7.4/7.4” and the “pIC50 (REN)” value was “nt/7.4/7.4”.

Consider `CC(C)(C)NS(=O)(=O)c1ccc(-c2sc(C(=O)N3CCC(S(C)(=O)=O)CC3)nc2CC2CCCCC2)c2ccccc12` [6/56], for which the “pIC50 (FF)” value is given as “nt/8.1/8.2” and the “pIC50 (REN)” value is “nt/8.1/8.2”.

On to `CC(C)(C)NS(=O)(=O)c1ccc(-c2sc(C(=O)NC3CCS(=O)(=O)CC3)nc2-c2cccc(Cl)c2)c2ccccc12` [300/14], for which the “pIC50 (FF)” value was “nt/8.2/8.2” and the “pIC50 (REN)” value is on record as “nt/8.2/8.2”.

As for `Cc1c(-c2sc(C(=O)NC3CCS(=O)(=O)CC3)nc2CC2CCCCC2)cc(Cl)c(S(N)(=O)=O)c1Cl` [17/2], the “pIC50 (FF)” value was “nt/5.7/5.9” and the “pIC50 (REN)” value is “nt/5.7/5.9”.

For `CCC(C)(C)NS(=O)(=O)c1ccc(-c2sc(C(=O)NCc3ncc(S(C)(=O)=O)s3)nc2C(=O)N2CCC(C)CC2)c(Cl)c1C` [Example 303, 5-(2-Chloro-3-methyl-4-(N-(tert-pentyl)sulfamoyl)phenyl)-4-(4-methylpiperidine-1-carbonyl)-N-((5-(methylsulfonyl)thiazol-2-yl)methyl)thiazole-2-carboxamide], the “pIC50 (FF)” value is listed as “nt/7.7/7.7” and the “pIC50 (REN)” value is “nt/7.7/7.7”.

Take `CCC(C)(C)NS(=O)(=O)c1ccc(-c2sc(C(=O)NC3CCS(=O)(=O)CC3)nc2C(=O)N2CCC(C)CC2)c(Cl)c1C` [Example 301, 5-(2-Chloro-3-methyl-4-(N-(tert-pentyl)sulfamoyl)phenyl)-N-(1,1-dioxidotetrahydro-2H-thiopyran-4-yl)-4-(4-methylpiperidine-1-carbonyl)thiazole-2-carboxamide]: the “pIC50 (FF)” value is on record as “nt/7.8/7.9” and the “pIC50 (REN)” value was “nt/7.8/7.9”.

In the case of `CC(C)(C)NS(=O)(=O)c1ccc(-c2sc(C(=O)N[C@H]3C[C@H](C(=O)O)C3)nc2Cc2ccccc2)c2ccccc12` [300/18], the IC50 was 0.0316 µM under setting [1] and 0.0251 µM under setting [2].

As to `CC(C)(C)NS(=O)(=O)c1ccc(-c2oc(C(=O)N3CC4(C3)CS(=O)(=O)C4)nc2CC2CCCCC2)c2ccccc12` [100/24], the “pIC50 (FF)” value is “nt/7.5/7.7” and the “pIC50 (REN)” value is listed as “nt/7.5/7.7”.

On to `CC(C)(C)c1cc(-c2nc(C(=O)N[C@H]3C[C@H](C(=O)O)C3)oc2CC2CCCCC2)cc(C2(C)CC2)c1` [103/2], for which the IC50 is 0.398 µM under setting [1] and 0.251 µM under setting [2].

`CC(C)(C)NS(=O)(=O)c1ccc(-c2sc(C(=O)N3CCC(C(C)(C)C(=O)O)C3)nc2CC2CCCCC2)c2ccccc12` (stereo not drawn) [6/50]: the “pIC50 (FF)” value is reported as “nt/7.6/7.7” and the “pIC50 (REN)” value is “nt/7.6/7.7”.

Turning to `C[C@H](NS(=O)(=O)c1ccc(-c2sc(C(=O)NC3CCS(=O)(=O)CC3)nc2CC2CCCC2)c(Cl)c1Cl)C(F)(F)F` [8/12], the IC50 reads like this: under setting [1], 0.00126 µM; under setting [2], 0.00126 µM.

Regarding `CCN(C(C)(C)C)S(=O)(=O)c1ccc(-c2sc(C(=O)NCC(C)(C)O)nc2C(=O)N2CCC(C)CC2)c2ccccc12` [304/20], the “pIC50 (FF)” value is listed as “nt/7.4/7.7” and the “pIC50 (REN)” value is reported as “nt/7.4/7.7”.

As for `CC(C)(C)NS(=O)(=O)c1ccc(-c2oc(C(=O)NC3CCS(=O)(=O)CC3)nc2CC2CCCCC2)c2ccncc12` [100/28], the “pIC50 (FF)” value is on record as “nt/7.1/7.2” and the “pIC50 (REN)” value is “nt/7.1/7.2”.
